Experimental data from publication PMC6681416, “Novel Derivatives of Deoxycholic Acid Bearing Linear Aliphatic Diamine and Aminoalcohol Moieties and their Cyclic Analogs at the C3 Position: Synthesis and Evaluation of Their In Vitro Antitumor Potential” (Molecules, 2019).

Assays:
Type in all cases: cell-based, human
[1] = system: A549 cells; assay: MTT cytotoxicity assay, A549
Text: (§1) According to our previous data and data published by other research groups, chemical transformations of bile acids can greatly improve their antitumor potential. Thus, as the first step of evaluation of the biological activities of our novel DCA derivatives we assessed their effects on tumor cell viability. The cytotoxicity of the compounds was investigated with respect to a panel of cultured cell lines, including human duodenal HuTu-80, hepatocellular HepG2, cervical KB-3-1 and lung A549 carcinomas as well as murine macrophage RAW264.7 and non-transformed human fibroblasts hFF3 by MTT assay.
(§2) Human duodenal carcinoma HuTu-80 cells, human hepatocellular carcinoma HepG2 cells, human cervical carcinoma KB-3-1 cells, human lung carcinoma A549 cells were obtained from the Russian Cell Culture Collection (Institute of Cytology, RAS, St. Petersburg, Russia). Non-transformed human fibroblasts hFF3 were kindly provided by Dr. Olga Koval (Institute of Chemical Biology and Fundamental Medicine, SB RAS, Novosibirsk, Russia). RAW264.7 macrophages were kindly provided by Prof. Dr. Dmitry Kuprash (Engelhardt Institute of Molecular Biology, RAS, Moscow, Russia). The cells were cultured in DMEM (Sigma-Aldrich Inc., St. Louis, MO, USA) supplemented with 10% (v/v) heat-inactivated fetal bovine serum (FBS) (BioloT, St. Petersburg, Russia), 100 U/mL penicillin (ICN Biomedicals Inc., Costa Mesa, CA, USA), 100 µg/mL streptomycin and 0.25 µg/mL amphotericin; additionally, in the case of RAW264.7 cells, concentration of glucose in the medium was increased up to 4.5 mg/mL. The cells were incubated at 37 °C in 5% CO2 and 95% air (hereafter referred to as standard conditions). DCA derivatives were dissolved in DMSO to yield stock solutions of 10 mmol/L and stored at −20 °C prior to use.
(§3) Cells were seeded in triplicate in 96-well plates at a density of 5 × 10^3 (HuTu-80, HepG2, KB-3-1, hFF3), 10^4 (A549) or 5 × 10^4 (RAW264.7) cells per well. Cells were incubated under standard conditions for 24 h and then they were treated with varying doses of investigated derivatives for subsequent 24 h. Then 10 µL of MTT solution (5 mg/mL) were added to each wells and cells were incubated for an additional 2 h under standard conditions. The crystals of formazan forming within live cells were solubilized with DMSO and the absorbance was measured in a Multiscan RC plate reader (Thermo LabSystems, Helsinki, Finland) at a test and reference wavelengths of 570 nm and 620 nm, respectively. […] To perform SAR analysis, hierarchical clustering of compounds based on their IC50 values was fulfilled with Euclidean distance by using the Morpheus tool (https://software.broadinstitute.org/morpheus/), a platform designed for visualization and analysis of data in a matrix format. Heatmap, containing compounds’ SI values, were constructed by using the Excel 2010 software (Microsoft, Redmond, WA, USA). In order to reveal whether ROS participate in the induction of cell death by compound 9, HuTu-80 cells cultured in 96-well plate were pretreated by NAC at 2 mM for 1 h. Thereafter, the medium was replaced by fresh medium with compound 9 at 8 µM and the cells were incubated with subsequent 24 h under standard conditions. After this time period, the curves of cytotoxicity of compound 9 in the presence or absence of NAC were compared.

[2] = system: KB-3-1 cells; assay: MTT cytotoxicity assay, KB-3-1
Text: as §1, §2, §3

[3] = system: HepG2 cells; assay: MTT cytotoxicity assay, HepG2
Text: as §1, §2, §3

How did the IC50 ([1]; Homo sapiens, A549, MTT, 24 h, read-out: IC50 A549 (lung)) turn out when `COC(=O)CC[C@@H](C)[C@H]1CC[C@H]2[C@@H]3CC[C@@H]4CC(O)(CNCCCO)CC[C@]4(C)[C@H]3CC(=O)[C@]12C` (stereo partly drawn) [Compound 9, Methyl 3-hydroxy-3-((3-hydroxypropylamino)methyl)-12-oxo-5β-cholan-24-oate] was run?
The IC50 was 29 ± 3.5 µM.

What about the “Selectivity index A549” value ([1]; ratio IC50 hFF3 / IC50 A549) of the same compound?
Its value is 1.1.

And the IC50 ([2]; Homo sapiens, KB 3-1, MTT, 24 h, read-out: IC50 KB3-1 (cervix))?
The IC50 was 22.8 ± 1.8 µM.

What about the “Selectivity index KB-3-1” value ([2]; ratio IC50 hFF3 / IC50 KB-3-1) of the same compound?
Its value is 1.4.

And the IC50 ([3]; Homo sapiens, HepG2, MTT, 24 h, read-out: IC50 HepG2 (liver))?
The IC50 was 7.3 ± 0.6 µM.

What about the “Selectivity index HepG-2” value ([3]; ratio IC50 hFF3 / IC50 HepG2) of the same compound?
Its value is 4.5.
